Test results as given in ChEMBL document CHEMBL1140588, “Design and synthesis of potent amido- and benzyl-substituted cis-3-amino-4-(2-cyanopyrrolidide)pyrrolidinyl DPP-IV inhibitors” (Bioorg Med Chem Lett, 2007).

Legend:
[1] = target: Dipeptidyl peptidase 8 (Homo sapiens, UniProt Q6V1X1); experiment: Inhibition of human DPP8
[2] = target: hERG (KCNH2) (Homo sapiens, UniProt Q12809); experiment: Displacement of [3H]dofetilide from hERG at 10 uM; details: probe [3H]dofetilide, read-out: Activity
Sequence of hERG (KCNH2) (Q12809 whole entry): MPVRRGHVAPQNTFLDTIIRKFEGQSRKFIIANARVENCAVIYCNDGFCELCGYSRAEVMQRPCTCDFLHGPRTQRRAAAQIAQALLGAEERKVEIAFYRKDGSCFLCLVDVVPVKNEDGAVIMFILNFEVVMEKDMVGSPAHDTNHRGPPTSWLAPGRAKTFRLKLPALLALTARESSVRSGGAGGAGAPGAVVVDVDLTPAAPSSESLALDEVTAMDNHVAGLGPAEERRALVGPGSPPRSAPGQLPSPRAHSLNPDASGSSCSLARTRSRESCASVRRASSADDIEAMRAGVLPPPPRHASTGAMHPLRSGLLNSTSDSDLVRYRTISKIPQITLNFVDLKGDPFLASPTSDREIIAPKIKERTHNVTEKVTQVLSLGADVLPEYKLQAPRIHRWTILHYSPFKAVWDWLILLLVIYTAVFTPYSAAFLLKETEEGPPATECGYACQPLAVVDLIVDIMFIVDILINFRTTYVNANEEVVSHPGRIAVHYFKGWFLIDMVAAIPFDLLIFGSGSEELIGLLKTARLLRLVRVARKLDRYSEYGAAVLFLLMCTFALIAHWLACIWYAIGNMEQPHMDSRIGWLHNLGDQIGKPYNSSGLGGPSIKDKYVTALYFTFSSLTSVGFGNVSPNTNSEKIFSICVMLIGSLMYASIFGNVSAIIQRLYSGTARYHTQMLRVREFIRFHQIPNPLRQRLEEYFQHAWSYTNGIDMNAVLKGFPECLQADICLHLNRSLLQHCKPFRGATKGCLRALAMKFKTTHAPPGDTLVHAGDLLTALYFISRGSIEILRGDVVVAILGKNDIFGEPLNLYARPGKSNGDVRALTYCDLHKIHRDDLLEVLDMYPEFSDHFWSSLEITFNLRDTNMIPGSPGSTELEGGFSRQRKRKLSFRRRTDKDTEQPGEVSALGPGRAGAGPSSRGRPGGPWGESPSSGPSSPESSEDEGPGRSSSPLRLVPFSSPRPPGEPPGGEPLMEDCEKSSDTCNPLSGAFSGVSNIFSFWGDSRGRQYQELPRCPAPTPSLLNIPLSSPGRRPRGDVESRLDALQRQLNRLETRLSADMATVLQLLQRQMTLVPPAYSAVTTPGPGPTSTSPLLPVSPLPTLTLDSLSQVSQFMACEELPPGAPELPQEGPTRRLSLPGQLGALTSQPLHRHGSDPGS

[3] = target: Voltage-gated inwardly rectifying potassium channel KCNH2 (Homo sapiens, UniProt Q12809); experiment: Inhibition of hERG by patch clamp assay; format: toxicity
Sequence of Voltage-gated inwardly rectifying potassium channel KCNH2 (Q12809 whole entry): as above

[4] = Cmax in Sprague-Dawley rat at 5 mg/kg, po; format: ADME, organism-based; design: dose 5 mg/kg, route oral; details: in vivo
[5] = Bioavailability in Sprague-Dawley rat at 5 mg/kg, po; format: ADME, organism-based; details: in vivo
[6] = Plasma protein binding in Sprague-Dawley rat at 5 mg/kg, po; format: ADME, organism-based; design: dose 5 mg/kg, route oral; details: read-out: PB (converted)
[7] = Half life in Sprague-Dawley rat at 5 mg/kg, po; format: ADME, organism-based; design: dose 5 mg/kg, route oral; details: in vivo
[8] = tested on: Rattus norvegicus; experiment: AUC(0 to infinity) in Sprague-Dawley rat at 5 mg/kg, po; format: ADME, organism-based, Plasma; design: time infinity, dose 5 mg/kg, route oral; details: in vivo
[9] = species: Rattus norvegicus; experiment: Inhibition of DPP4 in Sprague-Dawley rat; format: functional
[10] = tested on: Rattus norvegicus; experiment: Inhibition of DPP4 in Sprague-Dawley rat at 5 mg/kg, po between 4 to 6 hrs; format: functional; design: scale not given: the % may be the effect or the level left

Sequence of Dipeptidyl peptidase 8 (Q6V1X1 whole entry): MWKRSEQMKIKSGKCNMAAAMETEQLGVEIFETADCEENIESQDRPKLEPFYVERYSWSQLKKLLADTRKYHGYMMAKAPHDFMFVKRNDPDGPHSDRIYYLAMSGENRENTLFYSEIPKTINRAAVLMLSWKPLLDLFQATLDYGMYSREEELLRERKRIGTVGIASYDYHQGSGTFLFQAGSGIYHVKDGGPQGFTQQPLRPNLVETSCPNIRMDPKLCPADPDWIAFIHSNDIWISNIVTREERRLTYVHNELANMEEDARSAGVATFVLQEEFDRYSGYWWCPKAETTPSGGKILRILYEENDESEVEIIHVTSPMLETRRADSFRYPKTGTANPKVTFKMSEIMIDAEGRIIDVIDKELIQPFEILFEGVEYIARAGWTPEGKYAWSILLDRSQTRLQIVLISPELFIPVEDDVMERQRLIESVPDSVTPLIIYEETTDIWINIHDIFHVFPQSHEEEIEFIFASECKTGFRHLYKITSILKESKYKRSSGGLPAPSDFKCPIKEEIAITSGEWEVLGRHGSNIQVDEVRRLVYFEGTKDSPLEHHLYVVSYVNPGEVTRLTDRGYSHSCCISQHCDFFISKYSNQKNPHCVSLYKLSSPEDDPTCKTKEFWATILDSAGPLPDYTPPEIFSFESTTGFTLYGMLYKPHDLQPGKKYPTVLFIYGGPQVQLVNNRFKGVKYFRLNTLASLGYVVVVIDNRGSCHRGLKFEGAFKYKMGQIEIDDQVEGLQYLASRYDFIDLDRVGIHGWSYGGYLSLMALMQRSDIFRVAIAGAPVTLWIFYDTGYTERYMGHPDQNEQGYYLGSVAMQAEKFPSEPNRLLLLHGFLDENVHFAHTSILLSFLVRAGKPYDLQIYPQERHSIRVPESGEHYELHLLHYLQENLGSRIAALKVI

IC50 [1] | Structure (SMILES) | inhibition at 10 µM [2] | other results
560 nM | N#Cc1ccc(CN2C[C@H](N)[C@H](C(=O)N3CCC[C@H]3C#N)C2)cc1 | 47% | –
461 nM | N#C[C@@H]1CCCN1C(=O)[C@@H]1CN(Cc2ccc(-n3cncn3)cc2)C[C@@H]1N | 40% | IC50 [3]: 1800 nM
– | N[C@H]1CN(C(=O)c2ccc3ccccc3c2)C[C@H]1C(=O)N1CCCC1 | 4% | –
704 nM | Cc1nnc(-c2ccc(CN3C[C@H](N)[C@H](C(=O)N4CCC[C@H]4C#N)C3)cc2)o1 | 4% | IC50 [3]: 165000 nM
– | N#Cc1ccc2c(c1)CCC2N1C[C@H](N)[C@H](C(=O)N2CCC[C@H]2C#N)C1 (some centres undefined) | 88% | –
– | N[C@H]1CN(C(=O)c2cc3cc(Cl)ccc3o2)C[C@H]1C(=O)N1CCCC1 | 14% | –
– | N[C@H]1CN(Cc2ccc(-n3cnnn3)cc2)C[C@H]1C(=O)N1CCCC1 | 43% | –
190 nM | N#C[C@@H]1CCCN1C(=O)[C@@H]1CN(Cc2ccc(-c3csnn3)cc2)C[C@@H]1N | 91% | –
– | N[C@H]1CN(Cc2cnc3ccccc3c2)C[C@H]1C(=O)N1CCCC1 | 32% | –
– | N#Cc1cc(CN2C[C@H](N)[C@H](C(=O)N3CCCC3)C2)ccc1F | 9% | –
– | CC(c1ccc(-n2cncn2)cc1)N1C[C@H](N)[C@H](C(=O)N2CCC[C@H]2C#N)C1 (some centres undefined) | 7% | Cmax [4]: 1400 ng/mL; bioavailability [5]: 30.6%; fraction unbound [6]: 0.77; half-life [7]: 4.3 h; AUC [8]: 7703 ng·h/mL; Inhibition [9]: 86%
148 nM | Cn1nccc1-c1ccc(CN2C[C@H](N)[C@H](C(=O)N3CCC[C@H]3C#N)C2)cc1 | 36% | –
– | N[C@H]1CN(C(=O)c2cc3ccccc3s2)C[C@H]1C(=O)N1CCCC1 | 5% | –
– | CC(c1ccc([N+](=O)[O-])cc1)N1C[C@H](N)[C@H](C(=O)N2CCCC2)C1 (some centres undefined) | 13% | –
3290 nM | N#C[C@@H]1CCCN1C(=O)[C@@H]1CN(Cc2cnc3ccccc3c2)C[C@@H]1N | 36% | –
– | N[C@H]1CN(C(=O)c2ccc(-n3cncn3)cc2)C[C@H]1C(=O)N1CCCC1 | 14% | –
– | CCc1cc(CN2C[C@H](N)[C@H](C(=O)N3CCC[C@H]3C#N)C2)cc(CC)c1C#N | 3% | –

IC50 [1] | Structure (SMILES) | inhibition at 10 µM [2] | other results
1040 nM | CC(c1ccc(C#N)cc1)N1C[C@H](N)[C@H](C(=O)N2CCC[C@H]2C#N)C1 (some centres undefined) | 18% | IC50 [3]: 10000 nM
– | N[C@H]1CN(C(=O)c2cnc3ccccc3c2)C[C@H]1C(=O)N1CCCC1 | 9% | –
– | Cc1cc(-n2cncn2)ccc1CN1C[C@H](N)[C@H](C(=O)N2CCC[C@H]2C#N)C1 | 62% | –
326 nM | N#C[C@@H]1CCCN1C(=O)[C@@H]1CN(Cc2ccc(-c3cc[nH]n3)cc2)C[C@@H]1N | 65% | –
– | Cc1cc(CN2C[C@H](N)[C@H](C(=O)N3CCC[C@H]3C#N)C2)cc(C)c1C#N | 21% | IC50 [3]: 28900 nM
– | N#C[C@@H]1CCCN1C(=O)[C@@H]1CN(C2CCOc3ccccc32)C[C@@H]1N (some centres undefined) | 7% | –
– | Cc1cc(CN2C[C@H](N)[C@H](C(=O)N3CCC[C@H]3C#N)C2)ccc1-n1cncn1 | 17% | –
922 nM | N#Cc1cc(CN2C[C@H](N)[C@H](C(=O)N3CCC[C@H]3C#N)C2)ccc1F | 10% | –
– | N[C@H]1CN(C(=O)c2ccc3ncccc3c2)C[C@H]1C(=O)N1CCCC1 | 19% | –
858 nM | Cc1ncn(-c2ccc(CN3C[C@H](N)[C@H](C(=O)N4CCC[C@H]4C#N)C3)cc2)n1 | 4% | bioavailability [5]: 36%; Activity [10]: 51%
– | N[C@H]1CN(Cc2ccc(-c3csnn3)cc2)C[C@H]1C(=O)N1CCCC1 | 84% | –
– | N[C@H]1CN(C(=O)c2cc3ccccc3cn2)C[C@H]1C(=O)N1CCCC1 | 0.5% | –
– | N[C@H]1CN(Cc2ccc(F)c(F)c2)C[C@H]1C(=O)N1CCCC1 | 19% | –
– | N[C@H]1CN(C(=O)c2ccc(-n3cnnn3)cc2)C[C@H]1C(=O)N1CCCC1 | 15% | –
247 nM | N#C[C@@H]1CCCN1C(=O)[C@@H]1CN(Cc2ccc(-n3nccn3)cc2)C[C@@H]1N | 49% | –
363 nM | Cn1cc(-c2ccc(CN3C[C@H](N)[C@H](C(=O)N4CCC[C@H]4C#N)C3)cc2)cn1 | 71% | –
– | N[C@H]1CN(C(=O)c2cnc3ccccc3n2)C[C@H]1C(=O)N1CCCC1 | 0.241% | IC50 [3]: > 300000 nM
